Laboratory results from publication PMC9926234, “Iterative computational design and crystallographic screening identifies potent inhibitors targeting the Nsp3 macrodomain of SARS-CoV-2” (Proceedings of the National Academy of Sciences of the …, 2023).
Several values for one entry are separate records, joined by “and”; a condition that tells them apart may be missing. Equal values may be shown once. Read-outs that look alike come from different tables or passages of the source.

Tests used:
SARS-CoV-2 NSP3 Mac1 [1] = test: Overall hit call (binding in crystallographic soaking or the HTRF-based binding assay)
Excerpt: Supplement pnas.2212931120.sd01.xlsx, sheet "Compound Summary" | column: HIT*

SARS-CoV-2 NSP3 Mac1 [2] = biological target: T1, SARS-CoV-2 NSP3 Mac1 (Severe acute respiratory syndrome coronavirus 2, UniProt P0DTD1); type: binding; conditions: for 1-BDC (PanDDA): 1 minus background density correction; for 1-BDC (PanDDA) / Refined occupancy: crystal soaking of Mac1; for Refined occupancy: ligand occupancy after refinement (phenix.refine)
SARS-CoV-2 NSP3 Mac1 [3] = biological target: T1, SARS-CoV-2 NSP3 Mac1; test: biochemical; type: binding
SARS-CoV-2 NSP3 Mac1 [4] = biological target: T1, SARS-CoV-2 NSP3 Mac1; design: contains a conserved macrodomain enzyme (Mac1); Differential scanning fluorimetry of Mac1, maximum thermal upshift; conditions: maximum shift over tested concentrations; binder
[5] = PanDDA event map 1-BDC, crystal soak, Compound_concentration 100 mM, PanDDA run dmso_34 or nohits_35 per dataset
[6] = crystal soak, Compound_concentration 100 mM, Echo dispense 40 nl, PanDDA run dmso_34 or nohits_35 per dataset
[7] = PanDDA 1-BDC of the event, compound stock 100 mM, Echo dispense volume 80 nl
[8] = crystal soak, compound stock 100 mM, Echo dispense volume 80 nl
[9] = ligand modeled in structure, compound stock 100 mM, Echo dispense volume 80 nl
[10] = HTRF ADPr-conjugated peptide displacement, read-out: IC50
[11] = HTRF ADPr-peptide displacement from SARS-CoV-2 Mac1, read-out: IC50
[12] = PanDDA 1-BDC of the event, compound stock 100 mM, Echo dispense volume 40 nl
[13] = crystal soak, compound stock 100 mM, Echo dispense volume 40 nl
[14] = PanDDA event map, crystal soak, Compound_concentration 100 mM, Echo_dispense_volume 40 nl
[15] = crystal soak, Compound_concentration 100 mM, Echo_dispense_volume 40 nl, PanDDA run (background map) dmso_34, nohits_35 or nohits_62
[16] = ligand modeled, crystal soak, Compound_concentration 100 mM, Echo_dispense_volume 40 nl

Structure (SMILES) | HIT* (SARS-CoV-2 NSP3 Mac1 [1]) | 1-BDC (SARS-CoV-2 NSP3 Mac1 [2]; [5]) | 1-BDC (PanDDA) (SARS-CoV-2 NSP3 Mac1 [2]; PanDDA event map) | PanDDA hit? (SARS-CoV-2 NSP3 Mac1 [2]; [6]) | Refined occupancy (SARS-CoV-2 NSP3 Mac1 [2]) | 1-BDC (SARS-CoV-2 NSP3 Mac1 [2]; [7]) | PanDDA hit? (SARS-CoV-2 NSP3 Mac1 [2]; [8]) | Modeled? (SARS-CoV-2 NSP3 Mac1 [2]; [9]) | IC50 (SARS-CoV-2 NSP3 Mac1 [3]; [10]) [µM] | Ki (SARS-CoV-2 NSP3 Mac1 [3]; read-out: Ki***) [µM] | also measured
O[C@H]1CCCC[C@H]1Nc1ncnc2[nH]ccc12 (relative stereo) [SRH-0015] | Y | 0.13 | 0.13 | TRUE | 26 | – | – | – | – | – | Modeled? (SARS-CoV-2 NSP3 Mac1 [2]; ligand modeled in this dataset, crystal soak, Compound_concentration 100 mM): TRUE; IC50 (SARS-CoV-2 NSP3 Mac1 [3]; IC50, HTRF ADPr-peptide displacement from SARS-CoV-2 Mac1): 132 µM; IC50 (SARS-CoV-2 NSP3 Mac1 [3]; IC50 [µM], HTRF ADPr-conjugated peptide displacement): 132 µM; Ki (SARS-CoV-2 NSP3 Mac1 [3]; Ki*** [µM]): 115 µM
CC1(C)CCC(C(=O)O)CN1C(=O)c1ncnc2[nH]ccc12 (centres unmarked) [F2804, FRESH00012962804] | – | – | – | – | – | – | – | – | – | – | DSF max dTma (SARS-CoV-2 NSP3 Mac1 [4]): 0.62 °C
CC1(C(=O)O)CCN(C(=O)Cc2c[nH]c3nccc(Cl)c23)C1 (centres unmarked) [F4848, FRESH00014134848] | – | – | – | – | – | – | – | – | – | – | DSF max dTma (SARS-CoV-2 NSP3 Mac1 [4]): 0.07 °C
O=C(O)CC1CN(c2ncnc3[nH]c4cc(F)ccc4c23)CC2(CCC2)O1 (centres unmarked) [LL114_0024] | Y | 0.06 | 0.11 | TRUE | 22 | 0.11 | TRUE | TRUE | 19.7 | 17.1 | IC50 (SARS-CoV-2 NSP3 Mac1 [3]; [11]): 19.6 µM and 20 µM
Cl.O=C(O)C1CN(c2ncnc3[nH]c4cc(F)ccc4c23)CCO1 (centres unmarked) [LL114_0033] | Y | 0.15 | 0.15 | TRUE | 30 | – | – | – | 40.4 | 35.2 | 1-BDC (SARS-CoV-2 NSP3 Mac1 [2]; [12]): 0.15; PanDDA hit? (SARS-CoV-2 NSP3 Mac1 [2]; [13]): TRUE; Modeled? (SARS-CoV-2 NSP3 Mac1 [2]; ligand modeled in structure, compound stock 100 mM, Echo dispense volume 40 nl): TRUE
O=C(O)C(O)C1CCCN(c2ncnc3[nH]c4cc(F)ccc4c23)C1 (centres unmarked) [LL114_0036] | Y | 0.2 | 0.24 | TRUE | 48 | 0.24 | TRUE | TRUE | 34.1 | 29.7 | –
O=C(O)[C@H]1[C@@H]2CN(c3ncnc4[nH]c5cc(F)ccc5c34)CC[C@@H]21 [LL114_0037] | Y | – | – | – | – | – | – | – | 37.6 | 32.7 | –
O=C(O)CCC1CN(c2ncnc3[nH]c4cc(F)ccc4c23)CCO1 (centres unmarked) [LL114_0041] | Y | 0.15 | 0.16 | TRUE | 32 | 0.15 | TRUE | – | 69.2 | 60.2 | 1-BDC (SARS-CoV-2 NSP3 Mac1 [2]; [14]): 0.16; PanDDA hit? (SARS-CoV-2 NSP3 Mac1 [2]; [15]): TRUE; Modeled? (SARS-CoV-2 NSP3 Mac1 [2]; [16]): TRUE
Nc1nc(N2CC3(CCC3)C(F)(C(=O)O)C2)c2c(n1)[nH]c1cc(F)ccc12 (centres unmarked) [LL123_0016] | Y | – | 0.17 | – | 34 | – | – | – | 24.5 | 21.3 | 1-BDC (SARS-CoV-2 NSP3 Mac1 [2]; PanDDA event map background density correction, crystal soak, compound concentration 100 mM): 0.17; 1-BDC (SARS-CoV-2 NSP3 Mac1 [2]; [14]): 0.15; PanDDA hit? (SARS-CoV-2 NSP3 Mac1 [2]; [15]): TRUE; Modeled? (SARS-CoV-2 NSP3 Mac1 [2]; ligand modeled in the crystal structure, crystal soak, compound concentration 100 mM): TRUE
O=C(O)C1CN(c2ncnc3[nH]c4cc(F)ccc4c23)CC12CCC2 (centres unmarked) [LL123_0020] | Y | 0.13 | 0.17 | TRUE | 34 | 0.12 and 0.17 | TRUE | – | 13.5 | 11.7 | 1-BDC (SARS-CoV-2 NSP3 Mac1 [2]; [14]): 0.17; PanDDA hit? (SARS-CoV-2 NSP3 Mac1 [2]; [15]): TRUE; Modeled? (SARS-CoV-2 NSP3 Mac1 [2]; [16]): TRUE; IC50 (SARS-CoV-2 NSP3 Mac1 [3]; [11]): 14 µM
O=C(O)C1(F)CN(c2ncnc3[nH]c4cc(F)ccc4c23)CC12COC2 (centres unmarked) [LL123_0031] | Y | – | 0.08 | – | 16 | 0.08 | TRUE | TRUE | 23.2 | 20.2 | IC50 (SARS-CoV-2 NSP3 Mac1 [3]; [11]): 23 µM
O=C(O)C1(F)CN(c2ncnc3[nH]c4cc(F)ccc4c23)CC1C1CC1 (centres unmarked) [LL123_0032] | Y | 0.1 | 0.12 | TRUE | 24 | 0.14 | TRUE | – | 41.8 | 36.4 | 1-BDC (SARS-CoV-2 NSP3 Mac1 [2]; [14]): 0.12; PanDDA hit? (SARS-CoV-2 NSP3 Mac1 [2]; [15]): TRUE; Modeled? (SARS-CoV-2 NSP3 Mac1 [2]; [16]): TRUE
CN(c1ncnc2[nH]c3cc(F)ccc3c12)C1CCCS(=O)(=O)C1 (centres unmarked) [LRM-0010] | Y | – | 0.06 | – | 12 | 0.06 | TRUE | TRUE | – | – | –
CN(Cc1ccccn1)c1ncnc2[nH]c3cc(F)ccc3c12 [LRM-0028] | Y | – | 0.15 | – | 30 | 0.15 | TRUE | TRUE | – | – | 1-BDC (SARS-CoV-2 NSP3 Mac1 [2]; [12]): 0.14; PanDDA hit? (SARS-CoV-2 NSP3 Mac1 [2]; [13]): TRUE
CC1CC(C(=O)O)N1C(=O)c1cc(O)nc2ccc(F)cc12.O=C(O)C(F)(F)F (centres unmarked) [R0658, REAL300007260658] | – | – | – | – | – | – | – | – | – | – | DSF max dTma (SARS-CoV-2 NSP3 Mac1 [4]): 0.37 °C
CC1C(C(=O)O)CCCN1S(=O)(=O)c1c[nH]c2ncc(Cl)cc12 (centres unmarked) [R3575, REAL300016493575] | – | – | – | – | – | – | – | – | – | – | DSF max dTma (SARS-CoV-2 NSP3 Mac1 [4]): 0.15 °C
